Results on nine molecules are retold here after US20240309028A1, “PHOSPHOLIPID COMPOUNDS AND METHODS OF MAKING AND USING THE SAME” (Gilead Sciences, Inc., priority 2023, published 2024).

One experiment has as its system RSV strain A2. Kind of experiment: RSV Cellomics assay for RSV A2 antiviral activity (EC50-RSV-Hep2-96-Cellomics). In kind it is cell-based. Particulars: human respiratory syncytial virus, HEp-2, 72 h; Hep2 cells, RSV strain A2, MOI=0.05, 3 days, RSV F protein immunofluorescence; read-out: EC50-RSV-HEp2-96-Cellomics Example B1. Here is the method: Example B1: RSV Cellomics Assay for RSV A2 Antiviral Activity (EC50-RSV-Hep2-96-Cellomics)
8×10^3 Hep2 cells are seeded into 96 well plates in 100 μL of media (DMEM supplemented with GlutaMAX, 10% FBS and Pen/Strep) and briefly spun at 50×g for 1 minute to attach cells. Cells were further allowed to attach with overnight incubation at 37° C.+5% CO2. The following day, the media was aspirated and 100 μL of fresh DMEM media containing 2% FBS was added. A three-fold dilution series of compounds of interest are then added to the plate using the Tecan D300e dispenser and the plate is normalized to the well with the highest volume of DMSO. The cells are next infected by adding 100 μL of media containing RSV strain A2 at an MOI=0.05 and the plates incubated for 3 days at 37° C.+5% CO2. Following the incubation, the media is removed, and the cells are washed once with 250 μL PBS and fixed with 250 μL ice-cold 100% methanol for 10 minutes at 4 C. The methanol is then removed and the plates air dried for 5 minutes and then washed once with 250 μL PBS to remove any residual methanol. The wells are then blocked 60 μL/well of BlockAid (B10710, Thermo-Fisher) for 1 hour at RT on rocker at which point the blocking buffer is carefully aspirated. Primary antibody against the RSV F protein (MAB 858-1) is then diluted 1:2000 in SuperBlock (37515, Thermo Fisher) and 50 μL of the primary antibody solution is added to each well. The plates are incubated at room temperature for 1 hour with gentle agitation and then washed with 250 μL of PBS-Tween 3 times. A goat anti-mouse AlexaFluor 647 conjugated secondary antibody (Sigma, A21235) is then diluted 1:2000 and Hoescht 33342 (H3570) at 1:1000 in SuperBlock and 50 μL added to the wells for 1 hour at 37° C. After incubation the antibody solution is aspirated, and the wells are then washed with 250 μL of PBS-Tween 3 times. To keep cells from drying out, 100 μL of PBS is added to each well and the plates are sealed with black plate seal. Fluorescence at the 647 nm wavelength is measured using a Cellomics CellInsight CX7 machine. Compound activity is determined as a percentage of the % positive cells (or average intensity) compared to DMSO treated RSV infected well controls following subtraction of uninfected controls. The EC50 values are then calculated using nonlinear regression analysis in GraphPad Prism.

In experiment [1] the test system is Respiratory syncytial virus recombinant with luciferase (RSV-Luc5). Kind of experiment: NHBE RSV-Luc5 384-well assay (EC50 RSVFLUC NHBE-384). Type of experiment: cell-based. Particulars: human respiratory syncytial virus, 72 h, read-out: EC50 RSV FLUC NHBE 384 V2 (per Ex. U). The source says: Example U. NHBE RSV-Luc5 384-Well Assay (EC50 RSVFLUC NHBE-384)
Normal Human Bronchial Epithelial (NHBE) cells were purchased from Lonza (Walkersville, MD Cat #CC2540) and maintained in BEGM Bronchial Epithelial Cell Growth Medium BulletKit (Lonza CC-3170).
Cells were thawed, expanded, and were used for experiments at passage 2. Respiratory syncytial virus recombinant with luciferase (RSV-Luc5) (≥1×107 Infectious Units/ml (IU/ml) determined by TCID50) was purchased from Microbiologics (Saint Cloud, MN). Viral replication was determined in NHBE cells in the following manner.
Compounds are prepared in 100% DMSO in 384-well polypropylene plates (Greiner, Monroe, NC, Cat #784201) with 8 compounds per plate in grouped replicates of 4 at 10 serially diluted concentrations (1:3). The serially diluted compounds were transferred to low dead volume Echo plates (Labcyte, Sunnyvale, CA, Cat #LP-0200).
The test compounds were spotted to 384-well assay plates (Greiner, Monroe, NC, Cat #781091) at 200 nL per well. NHBE cells were harvested and suspended in BEGM Bronchial Epithelial Cell Growth Medium BulletKit and seeded to the pre-spotted assay plates at 5,000 cells per well in 30 μL. RSV-Luc5 virus was diluted in BEGM Bronchial Epithelial Cell Growth Medium BulletKit at 500,000 Infectious Units (IU) per mL and 10 μL per well was added to the assay plates containing cells and compounds, for an MOI of 1. The assay plates were incubated for 3 days at 37° C. and 5% CO2. At the end of incubation, One-Glo reagent (Promega, Madison, WI, Cat #E6120) was prepared. The assay plates and One-Glo reagent were equilibrated to room temperature for at least 15 minutes. 40 μL per well of One-Glo reagent was added and the plates were incubated at room temperature for 15 minutes before reading the luminescence signal on an En Vision multimode plate reader (Perkin Elmer, Waltham, MA). Remdesivir was used as positive control and DMSO was used as negative control. Values were normalized to the positive and negative controls (as 0% and 100% replication, respectively) and data was fitted using non-linear regression analysis by Gilead's dose response tool. The EC50 value for each compound was defined as the concentration reducing the viral replication by 50%.

SMILES strings stand for the structures.

In the case of `N#Cc1cc(F)cc(CO[C@@H](CCCCCCCCCCCCCCCCCC(F)(F)F)COP(=O)(O)OC[C@@]2(C#N)O[C@@H](c3ccc4c(N)ncnn34)[C@H](O)[C@@H]2O)c1` [Compound 3, ((2R,3S,4R,5S)-5-(4-aminopyrrolo[2,1-f][1,2,4]triazin-7-yl)-2-cyano-3,4-dihydroxytetrahydrofuran-2-yl)methyl ((S)-2-((3-cyano-5-fluorobenzyl)oxy)-20,20,20-trifluoroicosyl) hydrogen phosphate], the values for the EC50 (with RSV strain A2; in experiment [1]) were 421 nM and 44 nM, respectively.
Take `N#Cc1cc(F)cc(CO[C@H](CCCCCCCCCCCCCCCCC(F)F)COP(=O)(O)OC[C@@]2(C#N)O[C@@H](c3ccc4c(N)ncnn34)[C@H](O)[C@@H]2O)c1` [Compound 4, ((2R,3S,4R,5S)-5-(4-aminopyrrolo[2,1-f][1,2,4]triazin-7-yl)-2-cyano-3,4-dihydroxytetrahydrofuran-2-yl)methyl ((R)-2-((3-cyano-5-fluorobenzyl)oxy)-19,19-difluorononadecyl) hydrogen phosphate]: the EC50 is 170 nM with RSV strain A2 and 107 nM in experiment [1].
For the molecule `N#C[C@]1(COP(=O)(O)OCCCCCCCCCCCCCCCCCCCC(F)(F)F)O[C@@H](c2ccc3c(N)ncnn23)[C@H](O)[C@@H]1O` [Compound 5, ((2R,3S,4R,5S)-5-(4-aminopyrrolo[2,1-f][1,2,4]triazin-7-yl)-2-cyano-3,4-dihydroxytetrahydrofuran-2-yl)methyl (20,20,20-trifluoroicosyl) hydrogen phosphate], the EC50 in the experiment with RSV strain A2 stood at 3420 nM; in experiment [1], 4460 nM.
`N#Cc1cc(F)cc(CO[C@@H](CCCCCCCCCCCCCCCCC(F)(F)F)COP(=O)(O)OC[C@@]2(C#N)O[C@@H](c3ccc4c(N)ncnn34)[C@H](O)[C@@H]2O)c1` [Compound 6, ((2R,3S,4R,5S)-5-(4-aminopyrrolo[2,1-f][1,2,4]triazin-7-yl)-2-cyano-3,4-dihydroxytetrahydrofuran-2-yl)methyl ((S)-2-((3-cyano-5-fluorobenzyl)oxy)-19,19,19-trifluorononadecyl) hydrogen phosphate]: the EC50 came to 293 nM with RSV strain A2 and 86 nM in experiment [1].
`N#C[C@]1(COP(=O)(O)OC[C@H](CCCCCCCCCCCCCCCCCC(F)(F)F)OCc2ccc3ccccc3n2)O[C@@H](c2ccc3c(N)ncnn23)[C@H](O)[C@@H]1O` [Compound 7, ((2R,3S,4R,5S)-5-(4-aminopyrrolo[2,1-f][1,2,4]triazin-7-yl)-2-cyano-3,4-dihydroxytetrahydrofuran-2-yl)methyl ((S)-20,20,20-trifluoro-2-(quinolin-2-ylmethoxy)icosyl) hydrogen phosphate]: the results for the EC50 (with RSV strain A2; in experiment [1]) were 1400 nM and 714 nM, respectively.
On to `N#Cc1cc(F)cc(CO[C@H](CCCCCCCCCCCCCCCCCCCC(F)(F)F)COP(=O)(O)OC[C@@]2(C#N)O[C@@H](c3ccc4c(N)ncnn34)[C@H](O)[C@@H]2O)c1` [Compound 8, ((2R,3S,4R,5S)-5-(4-aminopyrrolo[2,1-f][1,2,4]triazin-7-yl)-2-cyano-3,4-dihydroxytetrahydrofuran-2-yl)methyl ((R)-2-((3-cyano-5-fluorobenzyl)oxy)-22,22,22-trifluorodocosyl) hydrogen phosphate], for which the EC50 with RSV strain A2 was determined as 237 nM; in experiment [1], 134 nM.
Consider `COc1cc(C#N)ccc1CO[C@@H](CCCCCCCCCCCCCCCCCC(F)(F)F)COP(=O)(O)OC[C@@]1(C#N)O[C@@H](c2ccc3c(N)ncnn23)[C@H](O)[C@@H]1O` [Compound 9, ((2R,3S,4R,5S)-5-(4-aminopyrrolo[2,1-f][1,2,4]triazin-7-yl)-2-cyano-3,4-dihydroxytetrahydrofuran-2-yl)methyl ((S)-2-((4-cyano-2-methoxybenzyl)oxy)-20,20,20-trifluoroicosyl) hydrogen phosphate], for which the EC50 in the experiment on RSV strain A2 was determined as 215 nM; in experiment [1], 265 nM.
As to `N#Cc1cc(F)cc(CO[C@H](CCCCCCCCCCCCCCCCCC(F)(F)F)COP(=O)(O)OC[C@@]2(C#N)O[C@@H](c3ccc4c(N)ncnn34)[C@H](O)[C@@H]2O)c1` [Compound 10, ((2R,3S,4R,5S)-5-(4-aminopyrrolo[2,1-f][1,2,4]triazin-7-yl)-2-cyano-3,4-dihydroxytetrahydrofuran-2-yl)methyl ((R)-2-((3-cyano-5-fluorobenzyl)oxy)-20,20,20-trifluoroicosyl) hydrogen phosphate], the EC50 in the experiment with RSV strain A2 was 127 nM; in experiment [1], 117 nM.
For the molecule `CN(C)CCNc1cccc(CO[C@@H](CCCCCCCCCCCCCCCCCC(F)(F)F)COP(=O)(O)OC[C@@]2(C#N)O[C@@H](c3ccc4c(N)ncnn34)[C@H](O)[C@@H]2O)c1` [Compound 11, ((2R,3S,4R,5S)-5-(4-aminopyrrolo[2,1-f][1,2,4]triazin-7-yl)-2-cyano-3,4-dihydroxytetrahydrofuran-2-yl)methyl ((S)-2-((3-((2-(dimethylamino)ethyl)amino)benzyl)oxy)-20,20,20-trifluoroicosyl) hydrogen phosphate], the EC50 in the experiment with RSV strain A2 turned out to be 12600 nM; in experiment [1], 4590 nM.

A word on the EC50: it is the concentration giving half of the maximal effect.
